# Laboratory results from paper PMC7136958, “Targeting the pregnane X receptor using microbial metabolite mimicry” (EMBO Molecular Medicine, 2020).
# Where “and” joins values, the source holds several entries; their conditions need not be identical. Identical values can stand only once. Like-named read-outs stand apart in the source and are kept apart here.
# Assays:
# PKAC-beta = PKAC-beta (Homo sapiens, UniProt P22694); assay: KINOMEscan select kinase screen; type: binding; conditions: two experiments
# Method: (§1) Kinase Assays. The kinase inhibition assays were conducted by DiscoverX on a platform assay by Ambit BioSciences as described previously 16,17. FKK6 was screened at a single concentration of 10 […]
# (§2) The assays measure a compound’s ability to inhibit binding of a canonical ligand substrate, with 0% activity of control corresponding to full inhibition and 100% activity of control to no inhibition. […]
# PKAC-alpha = PKAC-alpha (Homo sapiens, UniProt P17612); assay: KINOMEscan select kinase screen; type: binding; conditions: two experiments
# Method: as §1, §2
# C57BL/6 mice = assay: 10 Day (acute) toxicity study in mice; type: in vivo, mouse
# Method: (§3) The LS180 cell line was used to assess cell cytotoxicity using the MTT (3‐(4,5‐dimethylthiazolyl‐2)‐2,5‐diphenyltetrazolium bromide) assay as previously described (Bartonkova et al, 2015, 2016). […] FKK6 was selected as a lead compound for assessment, given that it had the more favorable PXR‐selective ligand activity in cells. […] The mice were gavaged for ten consecutive days and necropsied on day 12 with the collection of blood (serum). […] Similarly, a 30‐day toxicity test was conducted in mice using FKK6 at an oral dose of 200 μM in 0.8% DMSO per day. We chose this dose to stay within the safe DMSO dose administered to mice over 30 days. On day 30, we necropsied the mice and collected blood (serum).
# Cyp3a11 = assay: PXR target gene expression in hPXR mice (mice expressing the human PXR gene) after FKK6 gavage; type: in vivo, mouse; conditions: both sexes, C57BL/6-Nr1i2tm1(NR1I2)Arte (hPXR mice), mouse, 500 μM, 5 doses (60 h), individual mice
# Method: (§4) (Scheer et al, 2010) were administered 10% DMSO (n = 3) or FKK6 (n = 3) in 3 or 5 doses, with each dose interval of 12 h. Each gavage dose volume was 100 μl. 2–4 h after the dosing period, mice were sacrificed, and tissues were harvested for further analysis. The mouse studies were performed three independent times over an 18‐month period. All purchased mice were acclimatized in the Einstein vivarium for ~ 2 weeks before experiments started. […]. The room temperature was maintained at 25 ± 2°C with 55 ± 5% humidity. All studies were approved by the Institute of Animal Studies at the Albert Einstein College of Medicine, INC (IACUC # 20160706, 20160701 and preceding protocols), and specific animal protocols were also approved by additional protocols (IACUC# 20170406, 20170504) and Animal Care and Use Review Office (ACURO) of the US Army Medical Research and Materiel Command (PR160167, W81XWH‐17‐1‐0479). […]
# (§5) Mouse small, large intestine and liver samples were collected and total RNAs were […]
# (§6) isolated. […] Each tissue PCR was […]
# (§7) repeated in quadruplicate. The expression was normalized to internal control, GAPDH. ( b,d) The histograms show mean (95 %CI) values, c, mean (SD) and two way ANOVA followed with Tukey's post hoc test. The entire experiment was repeated n = 3 for reproducibility. The data shown is one representative experiment .
# hPXR mice = assay: as above; type: in vivo, mouse; conditions: for mdr1 fold expression / Cyp3a11 fold expression: Fig 4f
# Method: as §4, §5, §6, §7
# mdr1 = assay: as above; type: in vivo, mouse; conditions: both sexes, C57BL/6-Nr1i2tm1(NR1I2)Arte (hPXR mice), mouse, 500 μM, 5 doses (60 h), individual mice
# Method: as §4, §5, §6, §7
# mice = assay: 30 Day toxicity study in mice; type: in vivo, mouse
# Method: as §3
# [1] = 500 μM, 5 doses (60 h), individual mice
# [2] = oral 200 μM in 0.8% DMSO per day, 30 days
smiles,measurement,setting,value
"O=C(c1ccncc1)c1cc2ccccc2n1S(=O)(=O)c1ccccc1 [FKK5, (1-(phenylsulfonyl)-1H-indol-2-yl)(pyridin-4-yl)methanone]",%Ctrl,"PKAC-beta; 10000 nM, 10 µM",100 %Ctrl and 57 %Ctrl
same,%Ctrl,"PKAC-beta; 25000 nM, 25 µM",92 %Ctrl and 48 %Ctrl
same,remaining binding at 10 µM,"PKAC-alpha; 10000 nM, read-out: %Ctrl",100%
same,%Ctrl,"PKAC-alpha; 25000 nM, 25 µM",95 %Ctrl
same,remaining binding at 25 µM,"PKAC-alpha; 25000 nM, read-out: %Ctrl",85%
C#CCC(O)(c1ccncc1)c1cc2ccccc2n1S(=O)(=O)c1ccccc1 (centres unmarked) [FKK6],serum chemistry profiles,"C57BL/6 mice; 500 μM in 10% DMSO per day, gavage, ten days",did not alter
same,tissue pathology vs vehicle,"C57BL/6 mice; 500 μM in 10% DMSO per day, gavage, ten days, necropsy day 12",did not significantly impact tissue pathology
same,Histopathology: Kidney,"C57BL/6 mice; 10 day, n=6",Degenerative tubules/vacuoles (rare) (n=6)
same,Histopathology: Liver,"C57BL/6 mice; 10 day, n=6",Mild periportal inflammation (n=5)
same,Histopathology: Lung,"C57BL/6 mice; 10 day, n=6",Mild leukocytes (n=2)
same,Histopathology: Spleen,"C57BL/6 mice; 10 day, n=6",Mild lymphoid hyperplasia (n=2)
same,"fold induction at 60 h, 500 µM","Cyp3a11; in vivo, read-out: Cyp3a11 fold induction, Liver",1.81
same,"fold induction at 60 h, 500 µM","Cyp3a11; in vivo, read-out: Cyp3a11 fold induction, Small Intestine",1.85
same,"fold induction at 60 h, 500 µM","Cyp3a11; large intestine, oral, read-out: Cyp3a11 fold induction, Large Intestine",0.87
same,"fold induction at 60 h, 500 µM","Cyp3a11; liver, oral, read-out: Cyp3a11 fold induction, Liver",0.75
same,"fold induction at 60 h, 500 µM","Cyp3a11; small intestine, oral, read-out: Cyp3a11 fold induction, Small Intestine",0.85
same,"Cyp3a11 fold induction, Large Intestine",hPXR mice; [1],0.5 fold
same,"Cyp3a11 fold induction, Liver",hPXR mice; [1],0.51 fold
same,"Cyp3a11 fold induction, Small Intestine",hPXR mice; [1],0.81 fold
same,"mdr1 fold induction, Large Intestine",hPXR mice; [1],2.03 fold
same,"mdr1 fold induction, Liver",hPXR mice; [1],distinct increase and 4.6 fold and 5.65 fold and 2.73 fold
same,"mdr1 fold induction, Small Intestine",hPXR mice; [1],1.7 fold and 2.02 fold
same,mdr1 fold expression,hPXR mice; Large Intestine,2.55 fold
same,Cyp3a11 fold expression,hPXR mice; Liver,2.01 fold and 1.78 fold and 1.23 fold
same,mdr1 fold expression,hPXR mice; Liver,0.93 fold and 1.05 fold and 1.28 fold
same,Cyp3a11 fold expression,hPXR mice; Small Intestine,3.71 fold and 3.81 fold and 4.42 fold
same,mdr1 fold expression,hPXR mice; Small Intestine,1.46 fold and 1.56 fold and 1.59 fold
same,"fold induction at 60 h, 500 µM","mdr1; in vivo, read-out: mdr1 fold induction, Large Intestine",1.85
same,"fold induction at 60 h, 500 µM","mdr1; large intestine, oral, read-out: mdr1 fold induction, Large Intestine",1.96
same,"fold induction at 60 h, 500 µM","mdr1; small intestine, oral, read-out: mdr1 fold induction, Small Intestine",1.84
same,Histopathology: Liver,"mice; 30 day, n=6",Mild perivascular lymphohistiocytic aggregates (n=4)
same,Histopathology: Lung,"mice; 30 day, n=6",Mild leukocytes (n=2)
same,Histopathology: Spleen,"mice; 30 day, n=6",Mild lymphoid hyperplasia (n=2)
same,serum chemistry profiles,mice; [2],did not significantly alter serum chemistry profiles
same,tissue pathology vs vehicle,mice; [2],did not significantly alter serum chemistry profiles (Fig EV3C and D) or impact tissue pathology
